Experiments:
T-tropic HIV = conditions: patients that are dual tropic or with only the T-tropic form of the virus; cited from earlier work
HIV-1 = experiment: HIV infectivity assay (Table 2, strain not given); type: cell-based; conditions: Human immunodeficiency virus 1, read-out: Activity Level
Method in brief: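 HOS cells expressing hCXCR4/hCCR5/hCD4 with HIV-LTR-luciferase, pre-treated 1 h with compound at 37 °C, then infected with HIV-1 Ba-L or IIIB (~2 million RLU/well) for 96 h. Infection read by Steady-Glo luciferase; cytotoxicity in uninfected cultures by CellTiter-Glo.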

Question: With `c1cc(CN2CCCNCCNCCCNCC2)ccc1CN1CCCNCCNCCCNCC1` [AMD-3100] as the compound, how does the “T-tropic HIV viral load” value (T-tropic HIV) read?
Answer: significantly reduce

Question: Which IC50 (HIV-1) does the source give for `C[C@@H]1CN[C@@H](C)CN1c1cccc2nc(CN3CCC[C@H]4CCc5cccnc5[C@H]43)cn12` [Example 79, (4aR,10bS)-1-({5-[(2R,5S)-2,5-dimethyl-1-piperazinyl]imidazo[1,2-a]pyridin-2-yl}methyl)-1,2,3,4,4a,5,6,10b-octahydro-1,10-phenanthroline] here?
Answer: < 100 nM

Question: For `CN1CCN(c2cccc3nc(CN4CCC[C@@H]5CCCc6cccnc6[C@H]54)cn23)CC1` [Example 123, (4aS,11bS)-1-{[5-(4-methyl-1-piperazinyl)imidazo[1,2-a]pyridin-2-yl]methyl}-2,3,4,4a,5,6,7,11b-octahydro-1H-pyrido[3′,2′:6,7]cyclohepta[1,2-b]pyridine], which IC50 (HIV-1) is on record?
Answer: < 100 nM

Question: For `CN(C)CC1CCN(c2cccc3nc(CN4CCC[C@H]5CCc6cccnc6[C@H]54)cn23)CC1` [Example 86, [(1-{2-[(4aR,10bS)-3,4,4a,5,6,10b-hexahydro-1,10-phenanthrolin-1(2H)-ylmethyl]imidazo[1,2-a]pyridin-5-yl}-4-piperidinyl)methyl]dimethylamine], which IC50 (HIV-1) is on record?
Answer: < 100 nM

Question: Which IC50 (HIV-1) does the source give for `NCCCCn1c(CN2CCC[C@@H]3CCc4cccnc4[C@H]32)nc2ccccc21` (relative stereo) [Example 37, (trans) 4-[2-(3,4,4a,5,6,10b-hexahydro-1,10-phenanthrolin-1(2H)-ylmethyl)-1H-benzimidazol-1-yl]-1-butanamine] here?
Answer: < 100 nM

Question: With `c1cnc2c(c1)CC[C@@H]1CCCN(Cc3cn4c(N5CCSCC5)cccc4n3)[C@H]21` [Example 78, (4aR,10bS)-1-{[5-(4-thiomorpholinyl)imidazo[1,2-a]pyridin-2-yl]methyl}-1,2,3,4,4a,5,6,10b-octahydro-1,10-phenanthroline] as the compound, how does the IC50 (HIV-1) read?
Answer: 100 to 500 nM

Question: For `CN(C)[C@@H]1CCN(c2cccc3nc(CN4CCC[C@H]5CCc6cccnc6[C@H]54)cn23)C1` [Example 105, (3R)-1-{2-[(4aR,10bS)-3,4,4a,5,6,10b-hexahydro-1,10-phenanthrolin-1(2H)-ylmethyl]imidazo[1,2-a]pyridin-5-yl}-N,N-dimethyl-3-pyrrolidinamine], which IC50 (HIV-1) is on record?
Answer: < 100 nM

Question: For `c1cnc2c(c1)CC[C@@H]1CCCN(Cc3cn4c(NC5CCNC5)cccc4n3)[C@H]21` (stereo partly drawn) [Example 109, 2-[(4aR,10bS)-3,4,4a,5,6,10b-hexahydro-1,10-phenanthrolin-1(2H)-ylmethyl]-N-3-pyrrolidinylimidazo[1,2-a]pyridin-5-amine], which IC50 (HIV-1) is on record?
Answer: 100 to 500 nM

Question: With `c1ccc(Cn2c(CN3CCC[C@H]4CCc5cccnc5[C@H]43)nc3ccccc32)nc1` (racemic) [Example 45, (cis) 1-{[1-(2-pyridinylmethyl)-1H-benzimidazol-2-yl]methyl}-1,2,3,4,4a,5,6,10b-octahydro-1,10-phenanthroline] as the compound, how does the IC50 (HIV-1) read?
Answer: 500 to 10000 nM

Question: With `c1cnc2c(c1)CC[C@@H]1CCCN(Cc3nc4ccccc4n3C[C@H]3CCCNC3)[C@H]21` [Example 64, (4aR,10bS)-1-({1-[(3S)-3-piperidinylmethyl]-1H-benzimidazol-2-yl}methyl)-1,2,3,4,4a,5,6,10b-octahydro-1,10-phenanthroline] as the compound, how does the IC50 (HIV-1) read?
Answer: < 100 nM

Question: Which IC50 (HIV-1) does the source give for `CNCCCN(C)c1cccc2nc(CN3CCC[C@H]4CCc5cccnc5[C@H]43)cn12` [Example 81, N-{2-[(4aR,10bS)-3,4,4a,5,6,10b-hexahydro-1,10-phenanthrolin-1(2H)-ylmethyl]imidazo[1,2-a]pyridin-5-yl}-N,N′-dimethyl-1,3-propanediamine] here?
Answer: < 100 nM

Question: With `C[C@H]1CCCN1c1cccc2nc(CN3CCC[C@H]4CCc5cccnc5[C@H]43)cn12` [Example 111, (4aR,10bS)-1-({5-[(2S)-2-methyl-1-pyrrolidinyl]imidazo[1,2-a]pyridin-2-yl}methyl)-1,2,3,4,4a,5,6,10b-octahydro-1,10-phenanthroline] as the compound, how does the IC50 (HIV-1) read?
Answer: 100 to 500 nM

Question: For `c1cnc2c(c1)CC[C@@H]1CCCN(Cc3cn4c(N5CCC(C6CCNCC6)CC5)cccc4n3)[C@H]21` [Example 76a, (4aR,10bS)-1-{[5-(4,4′-bipiperidin-1-yl)imidazo[1,2-a]pyridin-2-yl]methyl}-1,2,3,4,4a,5,6,10b-octahydro-1,10-phenanthroline], which IC50 (HIV-1) is on record?
Answer: 100 to 500 nM

Question: Which IC50 (HIV-1) does the source give for `CN(C)CCCn1cnc(CN2CCC[C@H]3CCc4cccnc4[C@H]32)c1` [Example 51a, (3-{4-[(4aR,10bS)-3,4,4a,5,6,10b-hexahydro-1,10-phenanthrolin-1(2H)-ylmethyl]-1H-imidazol-1-yl}propyl)dimethylamine] here?
Answer: 500 to 10000 nM

Question: Which IC50 (HIV-1) does the source give for `c1ccc(Cn2ccnc2Cn2c(CN3CCC[C@@H]4CCc5cccnc5[C@H]43)nc3ccccc32)cc1` (relative stereo) [Example 46, (trans) 1-[(1-{[1-(phenylmethyl)-1H-imidazol-2-yl]methyl}-1H-benzimidazol-2-yl)methyl]-1,2,3,4,4a,5,6,10b-octahydro-1,10-phenanthroline] here?
Answer: 500 to 10000 nM

Question: With `CN1CCN(c2cccc3nc(CN4CCC[C@H]5CCc6cccnc6[C@H]54)c(CN4CCCCC4)n23)CC1` [Example 57, (4aR,10bS)-1-{[5-(4-methyl-1-piperazinyl)-3-(1-piperidinylmethyl)imidazo[1,2-a]pyridin-2-yl]methyl}-1,2,3,4,4a,5,6,10b-octahydro-1,10-phenanthroline] as the compound, how does the IC50 (HIV-1) read?
Answer: < 100 nM

Question: Which IC50 (HIV-1) does the source give for `CN1CCC(N(C)c2cccc3nc(CN4CCC[C@H]5CCc6cccnc6[C@H]54)cn23)C1` (stereo partly drawn) [Example 75, 2-[(4aR,10bS)-3,4,4a,5,6,10b-hexahydro-1,10-phenanthrolin-1(2H)-ylmethyl]-N-methyl-N-(1-methyl-3-pyrrolidinyl)imidazo[1,2-a]pyridin-5-amine] here?
Answer: < 100 nM

Question: For `CN1CCCC1CCNc1cccc2nc(CN3CCC[C@H]4CCc5cccnc5[C@H]43)cn12` (stereo partly drawn) [Example 104, 2-[(4aR,10bS)-3,4,4a,5,6,10b-hexahydro-1,10-phenanthrolin-1(2H)-ylmethyl]-N-[2-(1-methyl-2-pyrrolidinyl)ethyl]imidazo[1,2-a]pyridin-5-amine], which IC50 (HIV-1) is on record?
Answer: < 100 nM

Question: For `NC1CN(c2cccc3nc(CN4CCC[C@H]5CCc6cccnc6[C@H]54)cn23)C1` [Example 97, 1-{2-[(4aR,10bS)-3,4,4a,5,6,10b-hexahydro-1,10-phenanthrolin-1(2H)-ylmethyl]imidazo[1,2-a]pyridin-5-yl}-3-azetidinamine], which IC50 (HIV-1) is on record?
Answer: < 100 nM

Question: For `c1cnc2c(c1)CC[C@H]1CCN(Cc3nc4ccccc4n3Cc3nc4ccccc4[nH]3)[C@H]21` (racemic) [Example 131, (trans) 1-{[1-(1H-benzimidazol-2-ylmethyl)-1H-benzimidazol-2-yl]methyl}-2,3,3a,4,5,9b-hexahydro-1H-pyrrolo[3,2-h]quinoline], which IC50 (HIV-1) is on record?
Answer: 500 to 10000 nM

Question: With `CN1CCCC(Cn2c(CN3CCC[C@@H]4CCc5cccnc5[C@H]43)nc3ccccc32)C1` (relative stereo) [Example 42, (trans) 1-({1-[(1-methyl-3-piperidinyl)methyl]-1H-benzimidazol-2-yl}methyl)-1,2,3,4,4a,5,6,10b-octahydro-1,10-phenanthroline] as the compound, how does the IC50 (HIV-1) read?
Answer: 100 to 500 nM

Question: With `CN(C)CCN(C)c1cccc2nc(CN3CCC[C@H]4CCc5cccnc5[C@H]43)cn12` [Example 70, N-{2-[(4aR,10bS)-3,4,4a,5,6,10b-hexahydro-1,10-phenanthrolin-1(2H)-ylmethyl]imidazo[1,2-a]pyridin-5-yl}-N,N′,N′-trimethyl-1,2-ethanediamine] as the compound, how does the IC50 (HIV-1) read?
Answer: < 100 nM

Question: Which IC50 (HIV-1) does the source give for `CN(C)C(=O)CN1CCN(c2cccc3nc(CN4CCC[C@H]5CCc6cccnc6[C@H]54)cn23)CC1` [Example 102, 2-(4-{2-[(4aR,10bS)-3,4,4a,5,6,10b-hexahydro-1,10-phenanthrolin-1(2H)-ylmethyl]imidazo[1,2-a]pyridin-5-yl}-1-piperazinyl)-N,N-dimethylacetamide] here?
Answer: < 100 nM

Reference: US20090093454A1, “Chemical Compounds” (priority 2005, published 2009)
